The target of one test is ROMK (Homo sapiens (Human), UniProt P48048). Kind of test: Thallium Flux Assay. It is filed as cell-based. As for the experimental part: A Thallium Flux Assay was performed on the compounds of the Examples. This assay has been described previously; see, e.g., PCT Published Application WO 2013/062900.
The target of the next test is Kir1.1 (ROMK1) (Homo sapiens (Human), UniProt P48048). Kind of test: Electrophysiology Assay (whole cell voltage clamp, IonWorks Quattro). To be noted: Chinese hamster ovary cells stably expressing Kir1.1; fractional block at voltage step to 0 mV; 6 min compound incubation. In kind it is cell-based. As for the experimental part:
Blocking of Kir1.1 (ROMK1) currents was examined by whole cell voltage clamp (Hamill et. al. Pfluegers Archives 391:85-100 (1981)) using the IonWorks Quattro automated electrophysiology platform (Molecular Devices, Sunnyvale, Calif.). Chinese hamster ovary cells stably expressing Kir1.1 channels were maintained in T-75 flasks in cell culture media in a humidified 10% CO2 incubator at 37° C. Prior to an experiment, Kir1.1 expression was induced by overnight incubation with 1 mM sodium butyrate. On the day of the experiment, cells were dissociated with 2.5 mL of Versene (Invitrogen 15040-066), a non-enzymatic cell dissociation reagent, for approximately 6 min at 37° C. and suspended in 10 mL of bath solution containing (in mM): 150 NaCl, 10 KCl, 2.7 CaCl2, 0.5 MgCl2, and 5 HEPES, at pH 7.4. After centrifugation, the cell pellet was resuspended in approximately 4.0 mL of bath solution and placed in the IonWorks instrument. The intracellular solution consisted of (in mM): 80 K gluconate, 40 KCl, 20 KF, 3.2 MgCl2, 3 EGTA, and 5 Hepes, at pH 7.4. Electrical access to the cytoplasm was achieved by perforation in 0.13 mg/mL amphotericin B for 4 min. Amphotericin B (Sigma A-4888) was prepared as a 40 mg/mL solution in DMSO.
Voltage protocols and current recordings were performed using the IonWorks HT software/hardware system. Currents were sampled at 1 kHz. There was no correction for liquid junction potentials. The test pulse, consisting of a 100 ms (millisecond) step to 0 mV (millivolts) from a holding potential of −70 mV, followed by a 100 ms voltage ramp from −70 mV to +70 mV, was applied before and after a 6 min compound incubation period. Test compounds were prepared by diluting DMSO stock solutions into the bath solution at 3× the final concentration and placed in the instrument in 96-well polypropylene plates. Current amplitudes were measured using the IonWorks software. To assess compound potency, the fractional block during the voltage step to 0 mV was calculated in Microsoft Excel (Microsoft, Redmond, Calif.), and dose-response curves were fitted with Igor Pro 4.0 (WaveMetrics, Lake Oswego, Oreg.).
(Patch clamp records ionic current or voltage across a cell membrane.)

Molecules are shown by their SMILES.

ROMK, sequence (P48048 whole entry): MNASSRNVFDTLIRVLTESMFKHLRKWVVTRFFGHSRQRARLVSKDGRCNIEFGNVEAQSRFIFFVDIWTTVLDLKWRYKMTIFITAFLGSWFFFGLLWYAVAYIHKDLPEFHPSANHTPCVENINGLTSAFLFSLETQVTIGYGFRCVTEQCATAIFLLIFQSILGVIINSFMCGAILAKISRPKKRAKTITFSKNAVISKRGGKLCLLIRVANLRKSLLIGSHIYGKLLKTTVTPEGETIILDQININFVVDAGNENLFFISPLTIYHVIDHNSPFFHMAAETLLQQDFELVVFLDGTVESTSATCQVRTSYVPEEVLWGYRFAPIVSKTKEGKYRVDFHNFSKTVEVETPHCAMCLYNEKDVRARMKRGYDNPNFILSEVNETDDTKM
Kir1.1 (ROMK1), sequence (P48048 whole entry): as above

As to `Cc1c([C@@H](O)CN2C3CCC2CC2(C3)OCCN(C3=CC(=O)OC3)C2=O)ccc2c1COC2=O` (stereo partly drawn) [Example 36, (1R,2′R,5S)-8-((R)-2-hydroxy-2-(4-methyl-1-oxo-1,3-dihydroisobenzofuran-5-yl)ethyl)-4′-(5-oxo-2,5-dihydrofuran-3-yl)-8-azaspiro[bicyclo[3.2.1]octane-3,2′-morpholin]-3′-one], the IC50 on ROMK stood at 29.3 nM; against Kir1.1 (ROMK1), 13.4 nM.

On to `CC1=C(N2CCOC3(CCN(CCc4ccc(-n5cnnn5)nn4)CC3)C2=O)COC1=O` [Example 51, 9-(2-(6-(1H-tetrazol-1-yl)pyridazin-3-yl)ethyl)-4-(4-methyl-5-oxo-2,5-dihydrofuran-3-yl)-1-oxa-4,9-diazaspiro[5.5]undecan-5-one], for which the 50% inhibitory concentration (IC50) stood at 26.8 nM against ROMK and 7.3 nM on Kir1.1 (ROMK1).

As to `CC1=C(N2CCOC3(CCN(CCc4ccc(-n5cnnn5)cn4)CC3)C2)COC1=O` [Example 50], the values for the IC50 against ROMK and against Kir1.1 (ROMK1) were 57.6 nM and 16 nM, respectively.

As to `CC1=C(N2CCOC3(CCN(CC(O)c4ccc(-n5cnnn5)nc4C)CC3)C2)COC1=O` (single isomer, unassigned) [Example 22B, 4-(9-(2-hydroxy-2-(2-methyl-6-(1H-tetrazol-1-yl)pyridin-3-yl)ethyl)-1-oxa-4,9-diazaspiro[5.5]undecan-4-yl)-3-methylfuran-2(5H)-one], the IC50 at ROMK worked out at 117 nM; on Kir1.1 (ROMK1) it was 29 nM.

In the case of `Cc1nc(-n2cnnn2)ccc1C(O)CN1CCC2(CC1)CN(C1=CC(=O)OC1)CCO2` (single isomer, unassigned) [Example 20A, 4-(9-(2-hydroxy-2-(2-methyl-6-(1H-tetrazol-1-yl)pyridin-3-yl)ethyl)-1-oxa-4,9-diazaspiro[5.5]undecan-4-yl)furan-2(5H)-one], the IC50 was 61.5 nM against ROMK and 37 nM at Kir1.1 (ROMK1).

Consider `O=C1C=C(N2CCOC3(CCN(C[C@@H](O)c4ccc(-n5cnnn5)nc4)CC3)C2)CO1` [Example 19B, (S)-4-(9-(2-(6-(1H-tetrazol-1-yl)pyridin-3-yl)-2-hydroxyethyl)-1-oxa-4,9-diazaspiro[5.5]undecan-4-yl)furan-2(5H)-one], for which the half-inhibitory concentration (IC50) on ROMK is 263 nM; on Kir1.1 (ROMK1), 100 nM.

As to `CC1=C(N2CCNC3(CCN(CC(O)c4ccc(-n5cnnn5)nc4C)CC3)C2=O)COC1=O` (single isomer, unassigned) [Example 2A, 9-(2-hydroxy-2-(2-methyl-6-(1H-tetrazol-1-yl)pyridin-3-yl)ethyl)-4-(4-methyl-5-oxo-2,5-dihydrofuran-3-yl)-1,4,9-triazaspiro[5.5]undecan-5-one], the IC50 on ROMK was determined as 36.5 nM; against Kir1.1 (ROMK1) it was 26 nM.

In the case of `Cc1c([C@@H](O)CN2CCC3(CC2)CN(C2=CC(=O)OC2)C(=O)O3)ccc2c1COC2=O` [Example 16, (R)-8-(2-hydroxy-2-(4-methyl-1-oxo-1,3-dihydroisobenzofuran-5-yl)ethyl)-3-(5-oxo-2,5-dihydrofuran-3-yl)-1-oxa-3,8-diazaspiro[4.5]decan-2-one], the IC50 was determined as 315 nM at ROMK and 320 nM against Kir1.1 (ROMK1).

As for `CC1=C(N2CCOC3(CCN(CC(O)c4ccc(-n5cnnn5)nc4C)CC3)C2=O)COC1=O` (stereo not shown) [Example 39, 9-(2-hydroxy-2-(2-methyl-6-(1H-tetrazol-1-yl)pyridin-3-yl)ethyl)-4-(4-methyl-5-oxo-2,5-dihydrofuran-3-yl)-1-oxa-4,9-diazaspiro[5.5]undecan-5-one], the figures for the IC50 on ROMK and on Kir1.1 (ROMK1) were 11.2 nM and 13 nM, respectively.

As for `CC1=C(N2CCOC3(CCN(C[C@H](O)c4ccc(-n5cnnn5)nc4)CC3)C2=O)COC1=O` [Example 6A, (R)-9-(2-(6-(1H-tetrazol-1-yl)pyridin-3-yl)-2-hydroxyethyl)-4-(4-methyl-5-oxo-2,5-dihydrofuran-3-yl)-1-oxa-4,9-diazaspiro[5.5]undecan-5-one], the values for the 50% inhibitory concentration (IC50) on ROMK and against Kir1.1 (ROMK1) were 14.6 nM and 6.6 nM, respectively.

Consider `CC1=C(N2CCOC3(CCN(CC(O)c4cnc(-n5cnnn5)cn4)CC3)C2=O)COC1=O` (single isomer, unassigned) [Example 18A, 9-(2-(5-(1H-tetrazol-1-yl)pyrazin-2-yl)-2-hydroxyethyl)-4-(4-methyl-5-oxo-2,5-dihydrofuran-3-yl)-1-oxa-4,9-diazaspiro[5.5]undecan-5-one], for which the concentration for half-maximal inhibition (IC50) worked out at 69.6 nM against ROMK and 12 nM at Kir1.1 (ROMK1).

Consider `CC1=C(N2CCOC3(CCN(C[C@H](O)c4ccc5c(c4C)COC5=O)CC3)C2=O)COC1=O` [Example 8A, (R)-9-(2-hydroxy-2-(4-methyl-1-oxo-1,3-dihydroisobenzofuran-5-yl)ethyl)-4-(4-methyl-5-oxo-2,5-dihydrofuran-3-yl)-1-oxa-4,9-diazaspiro[5.5]undecan-5-one], for which the 50% inhibitory concentration (IC50) was 13.3 nM against ROMK and 6.4 nM at Kir1.1 (ROMK1).

As for `Cc1nc(-n2cnnn2)ccc1C(O)CN1CCC2(CC1)CN(C1=CC(=O)OC1)CCO2` (single isomer, unassigned) [Example 20B, 4-(9-(2-hydroxy-2-(2-methyl-6-(1H-tetrazol-1-yl)pyridin-3-yl)ethyl)-1-oxa-4,9-diazaspiro[5.5]undecan-4-yl)furan-2(5H)-one], the IC50 against ROMK came out at 225 nM; on Kir1.1 (ROMK1), 71 nM.

Turning to `CC1=C(N2CCNC3(CCN(C[C@H](O)c4ccc(-n5cnnn5)nc4)CC3)C2=O)COC1=O` [Example 4A, (R)-9-(2-(6-(1H-tetrazol-1-yl)pyridin-3-yl)-2-hydroxyethyl)-4-(4-methyl-5-oxo-2,5-dihydrofuran-3-yl)-1,4,9-triazaspiro[5.5]undecan-5-one], the IC50 on ROMK was found to be 38.2 nM; at Kir1.1 (ROMK1), 46 nM.

With `CC1=C(N2CC(F)(F)OC3(CCN(C[C@@H](O)c4ccc(-n5cnnn5)nc4)CC3)C2)COC1=O` [Example 7B, (S)-4-(9-(2-(6-(1H-tetrazol-1-yl)pyridin-3-yl)-2-hydroxyethyl)-2,2-difluoro-1-oxa-4,9-diazaspiro[5.5]undecan-4-yl)-3-methylfuran-2(5H)-one], the concentration for half-maximal inhibition (IC50) against ROMK stood at 688 nM.

The compound `Cc1c([C@@H](O)CN2CCC3(CC2)CN(C2=C(Cl)C(=O)OC2)CCO3)ccc2c1COC2=O` [Example 23, (R)-5-(2-(4-(4-chloro-5-oxo-2,5-dihydrofuran-3-yl)-1-oxa-4,9-diazaspiro[5.5]undecan-9-yl)-1-hydroxyethyl)-4-methylisobenzofuran-1(3H)-one] returned a half-maximal inhibitory concentration (IC50) against ROMK of 59.1 nM.

Consider `CC1=C(N2CCOC3(CCN(CC(O)c4ccc(-n5cnnn5)cc4F)CC3)C2)COC1=O` (single isomer, unassigned) [Example 32A, 4-(9-(2-(2-fluoro-4-(1H-tetrazol-1-yl)phenyl)-2-hydroxyethyl)-1-oxa-4,9-diazaspiro[5.5]undecan-4-yl)-3-methylfuran-2(5H)-one], for which, on ROMK, 37.4 nM corresponded to half-maximal inhibition (IC50).

With `CC1=C(N2CCOC3(CCN(CCc4ccc(-n5cnnn5)nc4)CC3)C2=O)COC1=O` [Example 53, 9-(2-(6-(1H-tetrazol-1-yl)pyridin-3-yl)ethyl)-4-(4-methyl-5-oxo-2,5-dihydrofuran-3-yl)-1-oxa-4,9-diazaspiro[5.5]undecan-5-one], inhibition on ROMK was half-maximal at 13.1 nM (IC50).

On ROMK, `CC1=C(N2CCCOC3(CCN(C[C@H](O)c4ccc5c(c4C)COC5=O)CC3)C2=O)COC1=O` [Example 37, (R)-3-(2-hydroxy-2-(4-methyl-1-oxo-1,3-dihydroisobenzofuran-5-yl)ethyl)-11-(4-methyl-5-oxo-2,5-dihydrofuran-3-yl)-7-oxa-3,11-diazaspiro[5.6]dodecan-12-one] had an IC50 of 285 nM.

As for `CC1=C(N2C(=O)C3(CCN(C[C@@H](O)c4ccc(-n5cnnn5)nc4)CC3)OCC2C)COC1=O` (single isomer, unassigned) [Example 10C], inhibition against ROMK was half-maximal at 317 nM (IC50).

Regarding `Cc1cc(-n2cnnn2)ccc1C(O)CN1CCC2(CC1)CN(C1=CC(=O)OC1)CCO2` (single isomer, unassigned) [Example 30A, 4-(9-(2-hydroxy-2-(2-methyl-4-(1H-tetrazol-1-yl)phenyl)ethyl)-1-oxa-4,9-diazaspiro[5.5]undecan-4-yl)furan-2(5H)-one], on ROMK, the IC50 came to 477 nM.

Compound `Cc1c([C@@H](O)CN2CCC3(CC2)OCC(C)N(C2=CC(=O)OC2)C3=O)ccc2c1COC2=O` (single isomer, unassigned) [Example 14] came in with an IC50 against ROMK of 264 nM.

For `CC1=C(N2CCOC3(CCN(CCc4cnc(-n5cnnn5)cn4)CC3)C2=O)COC1=O` [Example 52, 9-(2-(5-(1H-tetrazol-1-yl)pyrazin-2-yl)ethyl)-4-(4-methyl-5-oxo-2,5-dihydrofuran-3-yl)-1-oxa-4,9-diazaspiro[5.5]undecan-5-one], on ROMK, the IC50 stood at 39.3 nM.

Broadly, the IC50 is the concentration needed to halve the response being measured. A lower IC50 goes with higher potency.

The values are drawn from patent US9850245B2 (Merck Sharp & Dohme Corp., priority 2014, dated 2017).
